Results on four compounds are retold here after ChEMBL document CHEMBL1201862, “PubChem BioAssay data set” (2004).

What all share (assay): growth of human tumour cells (NCI), 48 h
Assay [1] relates to CAKI-1.
For assay [2], the system named is HCT-116.
The test system of assay [3] is OVCAR-5.
Assay [4] relates to UACC-257.
In assay [5] the test system is MOLT-4.
For assay [6], the system named is COLO 205.
Assay [7] relates to A498.
Assay [8] concerns 786-0.
For assay [9], the system named is TK-10.
In assay [10] the test system is SF-295.
Assay [11] has as its system CCRF-CEM.
Assay [12] has as its system A549.
The subject of assay [13] is OVCAR-8.
For assay [14], the system named is UO-31.
Assay [15] has as its system SF-268.
For assay [16], the system named is Hs-578T.
Assay [17] deals with MDA-MB-231.
For assay [18], the system named is NCI-H460.
The subject of assay [19] is M14.
For assay [20], the system named is HOP-92.

Molecules are shown by their SMILES.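 Tested at 5 concentrations; 48 h exposure; 96-well plates; endpoints linearly interpolated, else capped at highest concentration. At the GI50, growth is halved.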 Active and inactive are the calls of the source. Rule as the data show it: active = GI50 up to about 1.1 µM and inactive = higher. Where only a bound is given, the exact number is not on record here.

Take `CCCN(CCCC(NC(C)=O)C(=O)NCc1ccccc1)C(=O)N(CCCl)N=O` (stereo not given): the GI50 in assay [1] was 17.6 µM (inactive); in [2], 22.6 µM (inactive); in assay [3], 34.4 µM (inactive); in assay [4] it was 28.8 µM (inactive); in assay [5] it was 2.6 µM (inactive); in assay [6], 24.4 µM (inactive). For the same compound, the GI50 in assay [7] is 13.3 µM (inactive); in assay [8], 0.638 µM (active); in [9], 37.8 µM (inactive); in assay [10] it was 2.66 µM (inactive); in assay [11], 6.87 µM (inactive); in [12], 5.83 µM (inactive). In addition, the GI50 in assay [13] was 10.4 µM (inactive); in assay [14] it was 25.5 µM (inactive); in assay [15] it was 1.42 µM (inactive); in [16] it was > 100 µM (inactive); in assay [17], > 100 µM (inactive); in [18], 0.27 µM (active). Further, the GI50 in assay [19] is 14.4 µM (inactive); in assay [20], 17.1 µM (inactive).

For `CCC1(O)C(=O)OCc2c1cc1n(c2=O)Cc2cc3ccccc3nc2-1` (stereo not given), the GI50 in assay [1] is < 0.01 µM (active); in [2] it was 0.048 µM (active); in assay [3], 0.347 µM (active); in [4] it was 0.417 µM (active); in assay [5], < 0.01 µM (active); in assay [6], 0.101 µM (active). For the same compound, the GI50 in assay [7] was 0.94 µM (active); in [8], 0.0279 µM (active); in assay [9], 6.73 µM (inactive); in [10], < 0.01 µM (active); in assay [11] it was < 0.0122 µM (active); in [12], 0.0221 µM (active). Moreover, the GI50 in assay [13] is 0.0653 µM (active); in [14] it was 0.0235 µM (active); in [15], < 0.0168 µM (active); in [16] it was 7.73 µM (inactive); in assay [17], 0.857 µM (active); in [18], < 0.0403 µM (active). In addition, the GI50 is < 0.01 µM (active) in assay [19] and 0.12 µM (active) in [20].

Consider `CC(C)(C)OC(=O)CN1CCNCCNCC1`, for which the GI50 in assay [1], in assay [2], in assay [3], in assay [4], in [5] and in [6] was > 100 µM (inactive) throughout. Also, the GI50 in assay [7], in [8], in assay [9], in assay [10], in assay [11] and in assay [12] was > 100 µM (inactive) in each case. The GI50 in assay [13], in assay [14], in assay [15], in assay [16], in [17] and in assay [18] was > 100 µM (inactive) throughout. Moreover, the GI50 in [19] and in [20] was > 100 µM (inactive) throughout.

On to `c1ccc2c(c1)CCN(C1=NCCO1)C2`, for which the GI50 in assay [1], in assay [2], in [3], in assay [4], in [5] and in assay [6] was > 10 µM (inactive) each time. Moreover, the GI50 in assay [7], in assay [8], in assay [9], in [10], in [11] and in assay [12] was > 10 µM (inactive) throughout. Also, the GI50 in assay [13], in assay [14], in assay [15], in assay [16], in assay [17] and in assay [18] was > 10 µM (inactive) each time. Further, the GI50 in [19] and in assay [20] was > 10 µM (inactive) in each case.
